Tests used:
DU145 = experiment: Stimulation of macropinocytosis (dextran uptake); format: cell-based
Description: (Panel A) DU145 cells were treated with 10 μM tAS1411 or 10 μM tCRO or no oligonucleotide in complete DMEM medium at 37° C. for the time indicated. After treatment, cell medium was changed for fresh complete medium containing 0.2 mg/ml dextran-10K labeled with Alexa Fluor 488, and cells were incubated for 30 min at 37° C. After incubation, cells were harvested and analyzed by flow cytometry to determine dextran uptake. (Panel B) The same experiment was performed using Hs27 cells. (Panel C) DU145 cells were treated with 10 μM tAS1411 or 10 μM tCRO or no oligonucleotide in complete DMEM medium at 37° C. for 48 h. After treatment, cell medium was changed for fresh complete medium containing 0.2 mg/ml dextran-10K tagged with Alexa Fluor 488, and cells were incubated for 30 min at 37° C. Then, cells were washed with cold PBS, added PBS containing 5 μg/ml PI and incubated on ice for 5 min. After washing with cold PBS, cells were fixed and the distribution of macropinocytic marker was visualized by confocal microscopy. The nucleus was stained with DAPI (blue). Scale bars, 10 μm. All experiments have been repeated at least three times. Data are mean of three independent samples; bars, SE; *(p<0.05).
FIG. 6 are graphs showing that nucleolin regulates AS1411-induced stimulation of macropinocytosis. DU145 cells were untreated (no transfection) or transfected, without siRNA (mock), or with 30 nM of one of three different nucleolin siRNAs (NCL1, NCL2, NCL3) or a control siRNA (scramble). 48 h after transfection, cells were incubated with 10 μM tAS1411, 10 μM tCRO, or no oligonucleotide in complete DMEM medium at 37° C. for 24 h. (Panel A) After treatment, cell medium was changed for fresh complete medium containing 0.2 mg/ml dextran-10K labeled with Alexa Fluor 488 (green) and incubated for 30 min at 37° C. (Panel B) After treatment, some cells were washed, fresh complete medium containing 10 μM FL-AS1411 added and incubated for 2 h at 37° C. After incubation, cells were harvested and analyzed by flow cytometry. Mean fluorescence was normalized to “not transfected” control (Panel A) or to no pre-treatment control (Panel B). All experiments have been repeated at least three times. Data are the mean of three independent samples; bars, SE; *(p<0.05).
FIG. 11 is a graph showing a comparison between AS1411 and tAS1411 in the ability to stimulate macropinocytosis. DU145 cells were plated 18 hr before treatment with different concentrations (0, 5, 10, or 15 μM) of AS1411, tAS1411 or tCRO in complete DMEM medium at 37° C. for 48 h. After treatment, cell medium was changed for fresh complete medium containing 0.2 mg/ml dextran-10K labeled with Alexa Fluor 488, and cells were incubated for 30 min at 37° C. After incubation, cells were incubated on ice with […] PI in PBS, harvested, fixed and immediately analyzed by flow cytometry.
To analyze uptake of the oligodeoxynucleotides or dextran-10K (macropinocytic marker) by flow cytometry, 2×10^5 cells in fresh supplemented culture medium (2.5 ml) were plated into 6-well plates for 18 h. After complete adhesion, the cells were incubated with 5′-FAM tagged oligodeoxynucleotides or Alexa Fluor 488 tagged dextran-10K and incubated as indicated in the Description of the Drawings. Cells were washed once with ice-cold PBS, incubated with 1 μg/ml 7-amino-actinomycin D (7-AAD) for 5 min on ice or 1 μg/ml propidium iodide (PI), and washed twice with ice-cold PBS. Cells were then treated with 0.01% trypsin/0.5 mM EDTA (300 μl) for 3 min prior addition 3 ml supplemented culture medium. The cells were then centrifuged and resuspended in 0.5 ml of 1% paraformaldehyde for analysis by flow cytometry using a FACScalibur cytometer (BD Biosciences, Mountain View, Calif.).
AS1411 causes a change in cancer cell morphology that is characterized by vacuolization, irregular nuclei, and swollen cells (Xu et al., 2001, J. Biol. Chem., 276:43221-30). […]

Hs27 cells = experiment: Uptake of fluorophore-labeled oligonucleotides by flow cytometry; format: cell-based, human; settings: 10 μM, 2 h
Description: FIG. 1 are graphs showing that AS1411 cell internalization is an active process. Cells were plated 18 h before uptake analysis. After incubation as described, cells were washed with ice-cold PBS, incubated with 1 μg/ml 7-AAD, harvested and resuspended in 1% paraformaldehyde containing 2 μg/ml actinomycin D, then analyzed by flow cytometry. (Panel A) DU145 cells were incubated at 37° C. with fresh complete DMEM medium containing 10 μM FL-AS1411 (black line) or 10 μM FL-CRO (gray line) for the time indicated. (Panel B) DU145 cells were incubated for 2 h at 37° C. in complete or serum-free DMEM medium containing 10 μM FL-AS1411, or 10 μM FL-CRO, or no oligonucleotide. (Panel C) Various cell lines were incubated with 10 μM FL-AS1411 (black outline histogram), 10 μM FL-CRO (gray outline histogram) or without DNA (solid gray histogram) at 37° C. or 4° C. for 2 h. All experiments were repeated at least three times. Data are mean of three independent samples; bars, SE; *(p<0.05).
FIG. 2 are graphs showing that AS1411 is internalized by different endocytic mechanisms in DU145 cancer cells and in non-malignant Hs27 cells. DU145 or Hs27 cells were plated 18 h before uptake analysis. Cells were pre-treated as described with inhibitor (gray histogram) or the corresponding vehicle control (black histogram) before addition of 10 μM FL-AS1411 and incubation at 37° C. for 2 h. After incubation, cells were harvested and analyzed by flow cytometry. Pre-treatment conditions were at 37° C. with: (Panel A) 5 μM Cytochalasin D for 30 min; (Panel B) 80 μM Dynasore for 30 min; or (Panel C) 3 mM amiloride for 1 h. All experiments were repeated at least three times and representative data are shown. Solid gray histograms represent background autofluorescence of unstained cells.
FIG. 9 are graphs showing the effects of inhibitors on various endocytic pathways. DU145 or Hs27 cells were plated 18 hr before uptake analysis. (Panel A) DU145 cells were pre-treated with dynamin inhibitor, […] Dynasore (black histogram) or DMSO (gray histogram) for 30 min at 37° C. After pre-treatment, cells were treated with […] transferrin conjugated with Alexa Fluor 488 for 30 min at 37° C. (Panel B) DU145 and Hs27 cells were pre-treated with 3 mM amiloride (black histogram) or vehicle (serum-free medium, gray histogram) for 1 h at 37° C. After pre-treatment, FL-CRO was added at a concentration of 10 μM and incubated at 37° C. for 2 h. After incubation, cells were harvested and analyzed by FACS. Gray solid histogram represents unstained cells.
To analyze uptake of the oligodeoxynucleotides or dextran-10K (macropinocytic marker) by flow cytometry, 2×10^5 cells in fresh supplemented culture medium (2.5 ml) were plated into 6-well plates for 18 h. […]

DU145 cells = experiment: Cell death / cytotoxicity; format: cell-based

With “5′-d(GGTGGTGGTGGTTGTGGTGGTGGTGG) [AS1411]” the “stimulation of macropinocytosis compared with tAS1411” value (DU145; 0, 5, 10, or 15 μM for 48 h) was “same response as tAS1411”, the “dextran uptake after treatment for shorter times” value (DU145; 1 h, 2 h, and 4 h) was “No changes in dextran uptake” and the “Stimulate MP?” value (DU145; DU145, Cancer, prostate) was “Yes”. The “uptake in Hs27 cells compared with cancer cells” value (Hs27 cells) was “higher uptake of AS1411 than any of the cancer cells analyzed”, the “timing of cell death” value (DU145 cells; 40 μM AS1411) was “within hours” and the “cytotoxicity at higher concentrations” value (DU145 cells; concentrations higher than 40 μM, early time point (2 h)) was “apparent cytotoxicity”.
